# Experimental data reported in patent publication US6638967B2, “Thiophene of furan pyrrolidine compounds” (Ortho-McNeil Phamraceutical, Inc., priority 2000, dated 2003).
# Structures can show the parent of a compound that is named as a salt.
# Molecular target: T1, human histamine H3 receptor (Homo sapiens, UniProt Q9Y5N1)
# T1 construct: One microgram of supercoiled H3 receptor cDNA was added to the cells and mixed; expressed in transfected cells
# Test: [3H]-N-methylhistamine binding
# Conditions: membranes of histamine H3 receptor-expressing SK-N-MC cells, 0.8 nM [3H]-N-methylhistamine, 45 min at 25° C.
# Description: Thus in the present invention receptor binding was determined using the human histamine H3 receptor (See Lovenberg et al Mol. Pharmacol. 1999, 1107). Screening using the human receptor is particularly important for the identification of new therapies for the treatment of human disease. Conventional binding assays for example are determined using rat synaptosomes (Garbarg et al J. Pharmacol. Exp. Ther. 1992, 263, 304), rat cortical membranes (West et al Mol. Pharmacol. 1990, 610), and guinea pig brain (Korte et al Biochem. Biophys. Res. Commun. 1990, 978). Only limited studies have been performed previously using human tissue but these allude to significant differences in the pharmacology of rodent and primate receptors (West et al Eur. J. Pharmacol. 1999, 233).
# Transfection of Cells With Human Histamine Receptor
# A 10 cm tissue culture dish with a confluent monolayer of SK-N-MC cells was split two days prior to transfection. Using sterile technique the media was removed and the cells were detached from the dish by the addition of trypsin. One fifth of the cells were then placed onto a new 10 cm dish. Cells were grown in a 37° C. incubator with 5% CO2 in Minimal Essential Media Eagle with 10% Fetal Bovine Serum. After two days cells were approximately 80% confluent. These were removed from the dish with trypsin and pelleted in a clinical centrifuge. The pellet was then re-suspended in 400 μL complete media and transferred to an electroporation cuvette with a 0.4 cm gap between the electrodes (Bio-Rad #165-2088). One microgram of supercoiled H3 receptor cDNA was added to the cells and mixed. The voltage for the electroporation was set at 0.25 kV; the capacitance was set at 960 μF. After electroporation the cells were diluted into 10 mL complete media and plated onto four 10 cm dishes. Because of the variability in the efficiency of electroporation, four different concentrations of cells were plated. The ratios used were; 1:20, 1:10, 1:5, with the remainder of the cells being added to the fourth dish. The cells were allowed to recover for 24 hours before adding the selection media (complete media with 600 μg/mL G418). After 10 days dishes were analyzed for surviving colonies of cells. Dishes with well isolated colonies were used. Cells from individual colonies were isolated and tested. SK-N-MC cells were used because they give efficient coupling for inhibition of adenylate cyclase. The clones that gave the most robust inhibition of adenylate cyclase in response to histamine were used for further study.
# [^3H]-N-methylhistamine binding
# Cell pellets from histamine H3 receptor-expressing SK-N-MC cells were homogenized in 20 mM TrisHCI/0.5 mM EDTA. Supernatants from a 800 g spin were collected, recentrifuged at 30,000 g for 30 minutes. Pellets were re-homogenized in 50 mM Tris/5 mM EDTA (pH 7.4). Membranes were incubated with 0.8 nM [^3H]-N-methylhistamine plus/minus test compounds for 45 min at 25° C. and harvested by rapid filtration over GF/C glass fiber filters (pretreated with 0.3 % polyethylenimine) followed by four washes with ice cold buffer. Filters were dried, added to 4 mL scintillation cocktail and then counted on a liquid scintillation counter. Non-specific binding was defined with 10 μM histamine. The pKi values were calculated based on a Kd of 800 pM and a ligand concentration ([L]) of 800 pM according to the formula: […]
# T1 sequence (Q9Y5N1 whole entry): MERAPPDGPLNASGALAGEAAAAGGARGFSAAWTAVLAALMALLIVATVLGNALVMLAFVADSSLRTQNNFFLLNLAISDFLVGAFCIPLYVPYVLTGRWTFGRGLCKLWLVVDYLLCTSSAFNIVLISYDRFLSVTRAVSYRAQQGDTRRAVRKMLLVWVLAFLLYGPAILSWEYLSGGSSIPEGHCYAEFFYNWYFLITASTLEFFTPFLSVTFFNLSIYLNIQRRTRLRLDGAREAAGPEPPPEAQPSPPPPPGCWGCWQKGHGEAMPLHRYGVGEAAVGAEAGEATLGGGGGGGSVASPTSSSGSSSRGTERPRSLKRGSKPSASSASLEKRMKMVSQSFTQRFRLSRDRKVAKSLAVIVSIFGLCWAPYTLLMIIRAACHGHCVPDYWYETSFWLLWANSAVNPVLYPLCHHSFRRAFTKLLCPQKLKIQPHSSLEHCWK
row,Ki,Compound
1,2.5 nM,O=S(=O)(c1ccc(CN2CCCC2)cc1)c1ccc(CN2CCCC2)cc1 [Example 8]
2,15 nM,"c1ccc(CN(c2ccc(CN3CCCC3)cc2)c2ccc(CN3CCCC3)cc2)cc1 [Example 23, Benzyl-bis-(4pyrrolidin1-ylmethyl-phenyl)-amine]"
3,0.41 nM,c1cc(-c2ccc(CN3CCCC3)o2)ccc1CN1CCCC1 [Example 2]
4,63 nM,"c1cc(-c2ccc(CN3CCCC3)cc2)c(CN2CCCC2)s1 [Example 5, 1-[(3-(4-Pyrrolidin-1-ylmethyl-phenyl)-thiophen)-2-ylmethyl]-pyrrolidine]"
5,3.2 nM,c1cc(CN2CCCC2)n(Cc2ccc(CN3CCCC3)cc2)c1 [Example 31]
6,9 nM,c1cc(-c2ccc(CN3CCCC3)s2)ccc1CN1CCCC1 [Example 1]
7,0.66 nM,c1cc(Oc2ccc(CN3CCCCC3)cc2)ccc1CN1CCCCC1 [Example 7]
8,2 nM,c1cc(CN2CCCC2)ccc1Cc1ccc(CN2CCCC2)cc1 [Example 9]
9,453 nM,CN(C)CCN(c1ccc(CN2CCCC2)cc1)c1ccc(CN2CCCC2)cc1 [Example 25]
10,0.5 nM,c1cc(Oc2ccc(CN3CCCC3)cc2)ccc1CN1CCCC1 [Example 6]
11,24.2 nM,c1cc(Cn2ccc(CN3CCCC3)c2)ccc1CN1CCCC1 [Example 30]
12,9 nM,"c1cc(CN2CCCC2)c(-c2ccc(CN3CCCC3)cc2)s1 [Example 4, 1-[(2-(4-Pyrrolidin-1-ylmethyl-phenyl)-thiophen)-3-ylmethyl]-pyrrolidine]"

# Second part, the molecule before the results:
row,Compound,Ki
1,"c1cc(Oc2ccc(CNC3=NCCN3)cc2)ccc1CNC1=NCCN1 [Example 17, 2-[4-(4-(2Imidazolin)-2-ylaminomethyl-phenoxy-)-benzyl-amino]-2-imidazolidone]",344 nM
2,"c1ccn(Cc2ccc(COc3ccc(CN4CCCC4)cc3)cc2)c1 [Example 20, 1-[4-(4Pyrrolidin1-ylmethyl-phenoxymethyl)-benzyl]-1H-pyrrole]",16 nM
3,"CN(C)CCCSc1ccc(C(=O)c2ccc(SCCCN(C)C)cc2)cc1 [Example 32, Bis-[4-(3-dimethylamino-propylsulfanyl)-phenyl]methanone dihydrochloride]",14 nM
4,"O=[N+]([O-])c1cc(CN2CCCCC2)ccc1Sc1ccc(N2CCCCC2)cc1 [Example 26, 1-[4-(4-Piperidine-phenylsulfanyl)-3-nitro-benzyl]-piperidine]",756 nM
5,CNC(=N)SCc1ccc(Oc2ccc(CSC(=N)NC)cc2)cc1 [Example 13],629 nM
6,"ON=Cc1ccc(-c2ccc(CN3CCCC3)cc2)cc1 [Example 28, 4′-Pyrrolidin-1-ylmethyl-biphenyl-4-carbaldehyde oxime]",6.5 nM
7,"CN(C)CCOc1ccc(C(=O)c2ccc(OCCN(C)C)cc2)cc1 [Example 34, Bis-[4-(2-dimethylamino-ethoxy)-phenyl]-methanone]",126 nM
8,c1cc(-c2ccc(CN3CCCC3)s2)sc1CN1CCCC1 [Example 3],1.4 nM
9,"CN(C)CCCOc1ccc(C(=O)c2ccc(O)cc2)cc1 [Example 33, [4-(3-Dimethylamino-propoxy)-phenyl]-(4-hydroxy-phenyl)-methanone]",129 nM
10,"c1cc(N(CCCN2CCCCC2)c2ccc(CN3CCCC3)cc2)ccc1CN1CCCC1 [Example 24, (3Piperidin-1-yl-propyl)-bis-(4pyrrolidin1-ylmethyl-phenyl)-amine]",3.5 nM
11,C/N=C(\NC)SCc1ccc(Oc2ccc(CS/C(=N/C)NC)cc2)cc1 [Example 12],85 nM
12,"c1cc(Oc2ccc(CSC3=NCCS3)cc2)ccc1CSC1=NCCS1 [Example 15, 2-[4-(4-(2Thiazolin)-2-ylthiomethyl-phenoxy-)-benzyl-thio]-2-thiazoline]",2570 nM
13,"Cn1ccnc1SCc1ccc(Oc2ccc(CSc3nccn3C)cc2)cc1 [Example 16, 2-[4-(4-(1Methyl-imidazo)-2-ylthiomethyl-phenoxy-)-benzyl-thio]-1-methyl-imidazole]",792 nM
14,"O=Cc1ccc(-c2ccc(CN3CCCC3)cc2)cc1 [Example 27, 4′-Pyrrolidin-1-ylmethyl-biphenyl-4-carbaldehyde]",8.7 nM
15,c1cn(Cc2ccc(Oc3ccc(Cn4ccnc4)cc3)cc2)cn1 [Example 10],151 nM
16,c1cn(Cc2ccc(Cc3ccc(Cn4ccnc4)cc3)cc2)cn1 [Example 11],150 nM
17,"c1cc(CCN2CCCC2)ccc1CCc1ccc(CCN2CCCC2)cc1 [Example 29, 1-(2-{4-[2-(1-Phenethyl-pyrrolidine)-ethyl]-phenyl}-ethyl)-pyrrolidine]",26.6 nM
